Square brackets hold non-standard residues; d marks the D form. Peptide text beside a SMILES is read from it. * marks the point of attachment. Tic = O=C(O)[C@@H]1Cc2ccccc2CN1; Cha = N[C@@H](CC1CCCCC1)C(=O)O; NHPhenethyl = c1ccc(CCN*)cc1; Nle = CCCC[C@H](N)C(=O)O
Columns and labels:
[1] = target: DR4Dw4 (DRA1*0101 DRB1*0401) (Homo sapiens, UniProt P01903+P01911, A100K/A169T/F76Y/I96L/K127E/L162R/M171V/N62H/P40V/Q125Y/R42H/S133A/S149N/S66Y/V115G/V209L/W38E); experiment: Competitive binding to MHC-II protein DR4Dw4
Experimental: (§1) Interaction mixtures lacking the peptidomimetic compound and both peptide mimetic compound and MHC-II were used as positive and negative controls, respectively. All interaction mixtures were set up in duplicates and were incubated for 16 hours at room temperature.
(§2) After washing with PBS, 60 μl of the MHC-II-compound interaction mixtures were transferred from the interaction plate to the appropriate wells of the capture plate and incubated for 2 h at 4° C. The wells were washed six times with 200 μl/well of cooled (4 to 8° C.) 1×DELFIA wash (Wallac-ADL-GmbH, Freiburg), incubated with 100 μl of cooled Europium-streptavidin conjugate (Wallac-ADL-GmbH, Freiburg; diluted 1/1000 with DELFIA assay buffer) for 30 minutes at 4° C., again washed six times with cooled 1×DELFIA wash and, finally, incubated with 200 μl cooled DELFIA enhancement solution (Wallac-ADL-GmbH, Freiburg) for one hour at room temperature before reading the time-resolved europium fluorescence at λex Eu^3+: 340 nm and λem Eu^3+: 613 (615) nm (Wallac Victor^2 1420 Multilabel Counter, Wallac-ADL-GmbH, Freiburg).

[2] = target: DR1 (DRA1*0101 DRB1*0101) (Homo sapiens, UniProt P01903+P01911, A100R/D57E/F55L/F60I/F76Y/I96L/L162R/M171V/P40L/Q125E/R42F/V115G/Y59C); experiment: Competitive binding to MHC-II protein DR1; details: Protein binding IC50 (nM) 0101, 0101
Experimental: as §1, §2

[3] = target: DR4Dw14 (DRA1*0101 DRB1*0404) (Homo sapiens, UniProt P01903+P01911, A100R/A169T/F76Y/I96L/K127E/L162R/M171V/N62H/P40V/Q125Y/R42H/S133A/S149N/S66Y/V209L/W38E); experiment: Competitive binding to MHC-II protein DR4Dw14; details: 0404; read-out: Protein binding IC50 (nM) 0404
Experimental: as §1, §2

[4] = Stability of compounds in rat blood plasma; type: in vitro ADME
Experimental: (§3) The stability of the peptidomimetic compounds was determined in rat (Charles River Laboratories, Sulzfeld), mouse (Charles River Laboratories, Sulzfeld) and human (Bayerisches Rotes Kreuz, München) blood plasma (E. R. Garrett and M. R. Gardner, J Pharmaceutical Sciences 71 (1982) 14-25).
(§4) Compound stock solutions were diluted into blood plasma to give a final compound concentration of 5 μM and the mixtures were incubated at 37° C. At 0, 6 and 24 hours 1 ml samples were drawn and the plasma proteins were precipitated by the addition of 3 ml acetonitrile p.a. and whirlmixing. The precipitate was pelleted by centrifugation at 2000 g for 5 minutes. The supernatant was evaporated off to dryness and the residue was reconstituted in 400 μl 50% acetonitrile, 0.1% TFA in water.
(§5) PBS controls were prepared for unstable compounds accordingly.

[5] = Stability of compounds in mouse blood plasma; type: in vitro ADME
Experimental: as §3, §4, §5

[6] = Stability of compounds in human blood plasma; type: in vitro ADME
Experimental: as §3, §4, §5

[7] = test system: T cell activation from 0404(DR14) chimeric MHCII-mice; experiment: In vivo inhibition of T cell activation by co-immunisation, DR14 mice immunised with OVA; parameters: species or system mouse; % Reduction of response to PPD(OVA): concentration or dose not given beside the values; details: for % Reduction of response to OVA: DR14 mice co-immunised with OVA plus compound, mean % inhibition from the control over 3 concentrations of antigen (6.7, 20 and 60 ug); for % Reduction of response to PPD(OVA): specificity control: response to PPD in the same cell pool, OVA co-immunised mice
Text: Mouse strains DR4 and DR14 carry chimeric MHC-II transgenes that encode the N-terminal domains of the respective DR molecules (forming the peptide binding site) and the remaining (2nd extracellular domains, transmembrane and intracytoplasmic domains) of the murine class II molecule I Ed. These strains are deficient of other murine class II, and thus, all helper T cell responses are triggered by peptides presented in the respective human MHC-II binding site. As an initial in vivo test of subject inhibitors designed to bind to DR, DR-transgenic mice were co-immunized with a pre-defined dose of protein antigen and different amounts of the compound antagonist to be tested. In this set-up, both antigen and compound were emulsified together in complete Freund's adjuvant (CFA), and thus, a direct competition between the two components for presentation by DR was tested. Readout of the assay is ex vivo antigen-specific activation of T cells from regional lymph nodes explanted 9 days after co-immunization. In a typical experiment, antigen dose-response was investigated, and the curves from mice immunized with antigen were compared to those from mice co-immunized with antigen+compound. The dose response curves were generated using lymph node cells pooled at equal numbers from 2-3 mice per experimental group. The experimental system also permits assessment of inherent antigenicity of the compound antagonist. This was done by setting up a dose-response study from the same cell pool using different concentrations of the compund under investigation instead of the antigen. As a specificity control, the response to Purified Protein Derivative (PPD), the major protein component of CFA, was tested in the same cell pool.
All Gpg conataining compounds have significant immunosupressive properties in one or both of the in-vivo models. Gpg-containing compounds also show improved activity or improved specificity over the Arg-containing equivilent. Further, compounds according to Formula I show activity in this assay.
Compounds of the invention were injected as an Emulsion prepared using CFA (Bacto Adjuvant Complete H37 Ra, Difco, Order-No. 3113-60); proteins 10 mg/ml in PBS, inhibitors 5 μM in 10% DMSO. CFA, PBS, antigen, and inhibitor were placed in the barrel of a 5-ml syringe (total volume not more than 1 mL). The mixture was sonicated at an amplitude less than 40% (30-35%) for two separated 15 s periods. The emulsion should seem to be hard and not liquid at this point. A drop of emulsion placed on the surface of water should not melt. The resulting emulsion was pushed through the needle into a 1 ml syringe with a needle (Gr.18, 26G×1″), and air bubbles were removed. Mice were co-immunized with 50 μg protein and 210 nM compound antagonist in final 100 μl emulsion into the tail base. Antigen+Compound and CFA are mixed 1:1 vol/vol. The best results are obtained using DR 4 mice immunised with HEL and DR 14 mice immunized with OVA.
Mice were injected at the tail-base as follows: Holding the tail of a mouse with thumb and middle finger, the index finger was placed under the base of the mouse's tail. The needle of the syringe was inserted about 1.5 cm from the tail base (hairy end) under the skin and pushed about 1 cm into the tail. 100 μl emulsion was injected into the mouse. After 9 days, mice were killed and lymph nodes removed.
The inhibitory effect of the candidate compounds on T-cell activation was tested using T-cells and antigen-presenting cells isolated from the lymph nodes of chimeric DR4-IE transgenic mice (Taconic, USA) previously co-immunized with hen egg lysozyme plus compound, or DR14-IE transgenic mice co-immunized with ovalbumin plus compound according to standard procedures (Adorini et al., 1988, Mueller et al., 1990; Current Protocols in Immunology, Vol. 2, 7.21; Ito et al., 1996). […]

[8] = test system: T-cell proliferation, lymph node cells of chimeric 0401-IE transgenic mice; details: DR4-LN
Experimental: The compounds were tested as follows to inhibit the proliferative T cell response of antigen-primed lymph node cells from mice carrying a chimeric mouse-human class II transgene with an RA-associated peptide binding site, and lack murine class II molecules (Muller et al., 1990; Woods et al., 1994; Current Protocols in Immunology, Vol. 2, 7.21; Ito et al., 1996). Here, the immunization takes place in vivo, but the inhibition and readout are ex vivo. […] These mice lack murine MHC class II, and thus, all Th responses are channelled through a single human RA-associated MHC class II molecule (Ito et al. 1996). These transgenic mice represent a model for testing human class II antagonists.
1.5×10^5 cells are incubated in 0.2 ml wells of 96-well tissue culture plates in the presence of ovalbumin (30 μg per well—half-maximal stimulatory concentration) and a dilution series of the compound under test (from around 0.1 to 200 uM) in serum free HL-1 medium containing 2 mM L-glutamine and 0.1 g/l Kanamycin for three days. Antigen specific proliferation is measured by 3H-methyl-thymidine (1 μCi/well) incorporation during the last 16 h of culture (Falcioni et al., 1999). Cells are harvested, and 3H incorporation measured using a scintillation counter (TopCount, Wallac Finland).

[9] = target: Cathepsin B1 (EC 3.4.22.1 from bovine spleen) (Bos taurus, UniProt P07688); details: Cathepsin B, 4 h

| Molecule | IC50 [1] [µM] | IC50 [2] [nM] | IC50 [3] [nM] | Stability (Arbitrary units) Rat 6 h [4] [Arbitrary units] | Stability (Arbitrary units) Mouse 6 h [5] [Arbitrary units] | Stability (Arbitrary units) Mouse 24 h [5] [Arbitrary units] | Stability (Arbitrary units) Human 6 h [6] [Arbitrary units] | Stability (Arbitrary units) Human 24 h [6] [Arbitrary units] | % Reduction of response to OVA [7] [%] | % Reduction of response to PPD(OVA) [7] [%] | Immunsupressive assays DR4-LN (Max) % Inhibition ([8]; maximal inhibition) [%] | IC50 ([8]; read-out: Immunsupressive assays DR4-LN (IC50)) [µM] | Stability (Arbitrary units) Cath B 4 h [9] [Arbitrary units] |
| --- | --- | --- | --- | --- | --- | --- | --- | --- | --- | --- | --- | --- | --- |
| CCCC[C@H](NC(=O)[C@@H]1Cc2ccccc2CN1C(=O)[C@H](CCCNC(=N)N)NC(=O)[C@H](CC1CCCCC1)NC(C)=O)C(=O)NCCc1ccccc1 [Compound P82, Ac-Cha-Arg-Tic-Nle-N(H)CH2CH2Ph] (Ac-[Cha]R[Tic][Nle]-NHPhenethyl) | 18 | 3100 | 14000 | 65 | 79 | 31 | 94 | 72 | 25 | 5 | 100 | 27 | 105 |
| Ac-Hfe-Gpg-Tic-Nle-βPhPro-[S(oxaz)L]-NMe2 [Compound P57] |  |  |  |  |  |  |  |  | 52.6 | 52.4 |  |  |  |

— US7629318B2, “Immunosuppressant compounds, methods and uses related thereto” (priority 2002, dated 2009)
